These results are taken from patent US9546150B2, “Substituted quinazolin-4-ones for inhibiting ubiquitin specific protease 7” (HYBRIGENICS SA, priority 2011, dated 2017).

The structures appear in SMILES notation.

One assay deals with T1, UCH-L1 (Homo sapiens, UniProt P09936).
T1 sequence (P09936 1-223): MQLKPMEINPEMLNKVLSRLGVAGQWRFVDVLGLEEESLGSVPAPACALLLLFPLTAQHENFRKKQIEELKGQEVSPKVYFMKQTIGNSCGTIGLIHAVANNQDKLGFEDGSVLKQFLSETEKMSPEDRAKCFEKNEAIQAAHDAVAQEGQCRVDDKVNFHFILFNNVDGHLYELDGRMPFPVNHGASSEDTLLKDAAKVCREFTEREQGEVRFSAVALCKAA
As to the kind of experiment: UCH-L1 activity assay, Ub-AMC substrate. The assay is classed as biochemical. The following applies: UbAMC substrate 300 nM, UCH-L1 2.5 nM. The method, then:
UCH-L1 was diluted in USP buffer (50 mM Tris HCl; 0.5 mM EDTA; 5 mM DTT (Dithiothreitol); 0.01% Triton X-100; Bovine Serum Albumin 0.05 mg·ml^−1 pH7.6). Compounds stocks (100 mM) were stored at −20° C. in DMSO. Compounds were tested at different concentrations: from 200 μM to 91 nM.
(§1) Reactions were performed as duplicates in Black 384 well plates (small volume microplates; Greiner; 10 μl final reaction volume). The substrate concentration for UCH-L1 was 300 nM Ub-AMC (Boston Biochem). The concentration of the enzyme (UCH-L1) in specificity assays was 2.5 nM. The concentrations were determined in order to perform specificity assays under initial velocities at fixed substrate concentration. Compounds were pre-incubated with enzymes for 30 minutes at 25° C. Reactions were initiated by addition of substrate to the plates containing the enzymes (+/− compounds) diluted in assay buffer. Reactions were incubated for 60 minutes at 37° C. Reactions were stopped by adding acetic acid (100 mM final). Readings were performed on a Pherastar Fluorescent Reader (BMG). λ Emission 380 nm; λ Excitation=460 nm.

Assay [1] deals with T2, USP8 (Homo sapiens, UniProt P40818).
T2 sequence (P40818 1-1118): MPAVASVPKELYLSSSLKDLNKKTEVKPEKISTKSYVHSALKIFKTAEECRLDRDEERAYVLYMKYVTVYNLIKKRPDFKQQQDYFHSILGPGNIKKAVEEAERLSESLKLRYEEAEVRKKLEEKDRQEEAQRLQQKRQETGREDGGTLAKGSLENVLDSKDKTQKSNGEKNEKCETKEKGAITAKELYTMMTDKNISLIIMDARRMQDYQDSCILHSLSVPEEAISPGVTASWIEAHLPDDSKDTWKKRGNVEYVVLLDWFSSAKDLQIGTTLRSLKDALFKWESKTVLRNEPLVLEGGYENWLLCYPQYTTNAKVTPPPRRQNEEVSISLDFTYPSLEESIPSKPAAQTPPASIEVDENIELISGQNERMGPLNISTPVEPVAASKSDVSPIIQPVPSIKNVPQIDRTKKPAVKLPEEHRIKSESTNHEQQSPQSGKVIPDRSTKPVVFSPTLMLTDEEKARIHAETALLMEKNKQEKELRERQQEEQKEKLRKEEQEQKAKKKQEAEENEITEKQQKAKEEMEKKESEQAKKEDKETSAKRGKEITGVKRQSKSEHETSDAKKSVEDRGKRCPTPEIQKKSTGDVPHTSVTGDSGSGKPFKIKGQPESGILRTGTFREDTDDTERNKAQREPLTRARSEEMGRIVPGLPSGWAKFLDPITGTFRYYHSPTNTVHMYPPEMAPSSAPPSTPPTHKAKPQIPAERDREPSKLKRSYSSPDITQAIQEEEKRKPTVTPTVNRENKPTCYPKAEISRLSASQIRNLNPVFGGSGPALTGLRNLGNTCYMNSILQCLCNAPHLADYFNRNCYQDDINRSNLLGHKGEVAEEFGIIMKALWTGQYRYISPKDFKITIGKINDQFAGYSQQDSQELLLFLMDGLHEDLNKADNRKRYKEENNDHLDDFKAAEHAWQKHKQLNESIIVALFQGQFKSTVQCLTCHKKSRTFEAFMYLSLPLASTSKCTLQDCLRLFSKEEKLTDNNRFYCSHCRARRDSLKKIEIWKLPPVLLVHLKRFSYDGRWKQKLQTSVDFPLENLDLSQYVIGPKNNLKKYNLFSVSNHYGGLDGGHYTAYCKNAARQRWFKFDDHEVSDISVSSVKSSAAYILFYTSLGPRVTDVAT
Nature of the assay: GST-Ub52-Flag HTRF deubiquitinating enzyme assay, USP8.
Source text: The cDNA encoding USP8 was obtained by PCR amplification from placenta mRNA. USP8 cDNA was subcloned by PCR into a baculovirus expression vector (pFastBac-HT; Invitrogen). A cDNA encoding a mutated USP8 was generated by mutagenic PCR. […] The sequences were ascertained by sequencing of the entire open reading frame. Bacmids encoding USP8 were generated following DH10bac transposition. The corresponding bacmids were transfected into insect cells (Sf9). Viruses were recovered from culture supernatant and amplified twice. Insect cells (Sf9 or High Five; Invitrogen) were infected for 72 hours. […] Proteins were affinity purified on metal affinity resins (Talon Metal affinity resin; BD Biosciences). Bound materials were extensively washed in wash buffer (50 mM Sodium Phosphate pH 7.0; 300 mM NaCl; 10 mM imidazole; 0.5% Triton X-100; 10% glycerol) and eluted from the resin in 250 mM imidazole-containing wash buffer. Proteins were dialyzed in dialysis buffer (Tris HCl pH 7.6 20 mM; NaCl 200 mM; DTT 1 mM; EDTA 1 mM; 10% Glycerol).
A cDNA encoding the fusion protein between ubiquitin and the ribosomal protein L40 (ub52 or uba52 or ubiquitin-L40) was amplified from human RNA using a proprietary human placenta library. The cDNA was subcloned into a bacterial expression vector (pGEX-2T, GE Healthcare), including an additional flag tag at the carboxyl end of the encoded protein.
For production and purification of recombinant proteins, the plasmid pGEX-2T-Ub52-flag was transformed into E. coli BL21 (Stratagene), grown in LB medium supplemented with 100 mg/ml ampicillin (LB ampi) at 37° C. overnight and then diluted 1/100 in LB ampi. The cells were incubated at 37° C. until an A600=0.6-0.8 was reached. After induction with 0.1 mM isopropyl-β-D-thiogalactopyranoside (IPTG), the culture was incubated at 30° C. for 180 min.
Cells were harvested by centrifugation for 15 min at 7000×g at 4° C. Bacterial pellets were lysed in NETN (Tris HCl pH 8.0; EDTA 1 mM; NP40 0.5%; protease inhibitor cocktail, PMSF 1 mM) and briefly sonicated. Insoluble material was removed by centrifugation 30 min at 14000×g. […] Briefly, soluble fraction was incubated on Glutathione beads pre-equilibrated in NETN buffer+0.5% Milk for 120 min at 4° C. Flow Through was recovered. Beads were extensively washed: the last wash was performed in Tris HCl pH 7.6 20 mM; NaCl 100 mM; MgCl2 12 mM. Elutions were performed using 20 mM Reduced Glutathione in 50 mM Tris HCl pH 8.0, NaCl 120 mM. […] Elutions were dialysed over night at 4° C. in Tris HCl pH 7.6 20 mM; NaCl 50 mM; DTT 0.5 mM.
The use of GST-Ub52-Flag is based on the time-resolved measurement of fluorescence emitted by transfer in homogenous medium.
The assay is carried out on multiwell assay plates. The plates are analyzed on a PHERAstar fluorimeter (BMG) after an overnight incubation at 4° C.
The enzyme reaction is carried out by mixing GST-Ub52-flag solution with 5 μl of USP7 solution (200 pM final) or 5 μl of USP8 (400 pM final). This mixture is incubated for one hour at room temperature on a multiwell assay plate. […] The plate is read after an overnight incubation at 4° C. on a PHERAstar fluorimeter (BMG).
The decrease in the signal correlates with the increase in enzyme activity i.e. the cleavage of GST-Ub52-Flag substrate.
Data (mean values+/−standard deviation) were analyzed as % of control (no compound) and plotted as percentage versus the Log of the compound concentration using GraphPad (Prism).

Assay [2] deals with T2, USP8. As to the kind of experiment: USP8 activity assay, Ub-AMC substrate. The assay is classed as biochemical. More on the design: His tag (pFastBac-HT vector); made in house; host or cells: Sf9 or High Five insect cells, baculovirus. The following applies: UbAMC substrate 300 nM, USP8 1.36 nM. The method, then:
USP8 was diluted in USP buffer (50 mM Tris HCl; 0.5 mM EDTA; 5 mM DTT; 0.01% Triton X-100; Bovine Serum Albumin 0.05 mg·ml^−1 pH8.8). Compounds stocks (100 mM) were stored at −20° C. in DMSO.
as §1, with “USP8” for “UCH-L1”, “The concentration of the enzyme (UCH-L1) in specificity assays was 2.5 nM.” left out, “nm:” for “nm;”

A further assay deals with USP7 (Homo sapiens, UniProt Q93009). As to the kind of experiment: GST-Ub52-Flag HTRF deubiquitinating enzyme assay, USP7. The assay is classed as biochemical. More on the design: Full-length wild-type human USP7 and its catalytic mutant; His tag (pFastBac-HT vector) (N); made in house; host or cells: Spodoptera frugiperda Sf9 (or High Five) insect cells, baculovirus. Conditions: GST-Ub52-Flag substrate, USP7 200 pM. The protocol: Bacmid DNA was prepared by an alkaline lysis procedure. The integrity of the bacmid minipreps and their orientation were checked by PCR, using generic and specific primers. Sf9 insect cells were cultured in InsectXpress medium (Cambrex) at 27° C. and transfected with the corresponding bacmid, using GeneShuttle 40 (Q-BIOgen). Viruses were recovered in the supernatant 72 h after transfection. Viruses were amplified by infecting insect cells (Sf9 or High Five cells; invitrogen) in 50 ml InsectXpress medium in a 150 cm^2 cell culture flask with 500 μl of the supernatant from transfected Sf9 cells. Following the second round of amplification, infected cells were recovered by rapid SDS lysis, boiled for 5 min at 100° C., sonicated briefly and centrifuged for 20 min at 14,000 g.
USP7, sequence (Q93009 whole entry): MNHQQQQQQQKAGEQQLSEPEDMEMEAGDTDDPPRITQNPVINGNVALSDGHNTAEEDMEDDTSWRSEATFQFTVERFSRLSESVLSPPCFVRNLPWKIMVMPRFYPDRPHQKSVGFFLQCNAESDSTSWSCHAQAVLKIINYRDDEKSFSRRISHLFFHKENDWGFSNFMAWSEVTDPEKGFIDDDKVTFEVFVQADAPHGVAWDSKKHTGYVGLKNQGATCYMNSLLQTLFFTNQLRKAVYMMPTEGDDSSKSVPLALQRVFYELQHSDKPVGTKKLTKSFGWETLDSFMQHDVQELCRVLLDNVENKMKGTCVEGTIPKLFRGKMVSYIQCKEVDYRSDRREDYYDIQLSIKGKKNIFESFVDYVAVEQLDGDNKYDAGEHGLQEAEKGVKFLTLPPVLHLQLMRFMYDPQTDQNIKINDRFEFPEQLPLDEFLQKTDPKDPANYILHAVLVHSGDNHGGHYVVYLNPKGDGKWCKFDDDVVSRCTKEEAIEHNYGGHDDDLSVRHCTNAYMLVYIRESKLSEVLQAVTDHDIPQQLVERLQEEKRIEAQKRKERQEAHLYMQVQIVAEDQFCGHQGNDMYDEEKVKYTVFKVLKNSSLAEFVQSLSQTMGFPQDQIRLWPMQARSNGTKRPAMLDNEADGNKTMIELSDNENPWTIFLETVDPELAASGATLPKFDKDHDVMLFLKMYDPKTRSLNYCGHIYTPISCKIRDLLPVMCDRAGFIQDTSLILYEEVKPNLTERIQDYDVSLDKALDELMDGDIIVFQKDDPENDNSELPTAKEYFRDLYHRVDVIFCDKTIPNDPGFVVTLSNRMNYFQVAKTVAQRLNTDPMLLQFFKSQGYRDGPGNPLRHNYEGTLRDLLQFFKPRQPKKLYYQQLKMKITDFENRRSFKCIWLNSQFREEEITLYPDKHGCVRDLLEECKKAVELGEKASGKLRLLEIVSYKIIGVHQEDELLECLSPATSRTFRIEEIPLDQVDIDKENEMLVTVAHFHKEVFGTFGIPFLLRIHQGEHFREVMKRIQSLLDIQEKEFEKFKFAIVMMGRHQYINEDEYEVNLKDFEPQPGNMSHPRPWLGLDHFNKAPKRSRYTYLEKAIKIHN
Flow Through was recovered.

`COc1ccccc1CCC(=O)N1CCC(O)(Cn2cnc3ccccc3c2=O)CC1` [Example 10, 3-({4-hydroxy-1-[3-(2-methoxyphenyl)propanoyl]piperidin-4-yl}methyl)-3,4-dihydroquinazolin-4-one]: the IC50 at UCH-L1, on USP8 [1], against USP8 [2] and on USP7 was greater than 200 µM throughout.

For `O=C(CCc1ccccc1)N1CCC(O)(Cn2cnc3ccccc3c2=O)CC1` [Example 1, 3-{[4-hydroxy-1-(3-phenylpropanoyl)piperidin-4-yl]methyl}-3,4-dihydroquinazolin-4-one], the 50% inhibitory concentration (IC50) on UCH-L1 is greater than 200 µM; at USP8 [1], greater than 200 µM; against USP8 [2] it was greater than 200 µM; against USP7, 74 µM.

On to `CC(Cc1ccccc1)C(=O)N1CCC(O)(Cn2cnc3cc(Cl)ccc3c2=O)CC1` (stereo not shown) [Example 14, 3-{[1-(2-benzylpropanoyl)-4-hydroxypiperidin-4-yl]methyl}-7-chloro-3,4-dihydroquinazolin-4-one], for which the IC50 at UCH-L1 was greater than 200 µM; on USP8 [1] it was greater than 200 µM; against USP8 [2] it was greater than 200 µM; on USP7, 29 µM.

Take `CCC(CC)C(=O)N1CCC(O)(Cn2cnc3cc(Cl)ccc3c2=O)CC1` [Example 9, 7-chloro-3-{[1-(2-ethylbutanoyl)-4-hydroxypiperidin-4-yl]methyl}-3,4-dihydroquinazolin-4-one]: the IC50 was greater than 200 µM against UCH-L1, greater than 200 µM at USP8 [1], greater than 200 µM against USP8 [2] and 214 µM at USP7.

Regarding `O=C(CCc1cccs1)N1CCC(O)(Cn2cnc3ccccc3c2=O)CC1` [Example 12, 3-({4-hydroxy-1-[3-(thiophen-2-yl)propanoyl]piperidin-4-yl}methyl)-3,4-dihydroquinazolin-4-one], the IC50 against UCH-L1 was greater than 200 µM; against USP8 [1], greater than 200 µM; on USP8 [2] it was greater than 200 µM; against USP7, 42 µM.

As to `CC(Cc1ccccc1)C(=O)N1CCC(O)(Cn2cnc3ccccc3c2=O)CC1` (stereo not shown) [Example 13, 3-{[1-(2-benzylpropanoyl)-4-hydroxypiperidin-4-yl]methyl}-3,4-dihydroquinazolin-4-one], the IC50 at UCH-L1, at USP8 [1] and against USP8 [2] was greater than 200 µM in each case.

For `CC(Cc1cccs1)C(=O)N1CCC(O)(Cn2cnc3ccccc3c2=O)CC1` (stereo not shown) [Example 5, 3-({4-hydroxy-1-[2-methyl-3-(thiophen-2-yl)propanoyl]piperidin-4-yl}methyl)-3,4-dihydroquinazolin-4-one], the IC50 on UCH-L1 is greater than 200 µM; at USP8 [1], greater than 200 µM; against USP8 [2] it was greater than 200 µM; at USP7, 36 µM.

Take `COc1cc2ncn(CC3(O)CCN(C(=O)C(C)C)CC3)c(=O)c2cc1OC` [Example 7, 3-{[4-hydroxy-1-(2-methylpropanoyl)piperidin-4-yl]methyl}-6,7-dimethoxy-3,4-dihydroquinazolin-4-one]: the IC50 against UCH-L1 is greater than 200 µM; on USP8 [1], greater than 200 µM; against USP8 [2], greater than 200 µM; against USP7, 174 µM.

On to `O=C(CCc1ccccc1)N1CCC(O)(Cn2cnc3cc(Cl)ccc3c2=O)CC1` [Example 2, 7-chloro-3-{[4-hydroxy-1-(3-phenylpropanoyl)piperidin-4-yl]methyl}-3,4-dihydroquinazolin-4-one], for which the IC50 is greater than 200 µM against UCH-L1 and 77 µM against USP7.

With `O=C(CCC1CCCC1)N1CCC(O)(Cn2cnc3cc(Cl)ccc3c2=O)CC1` [Example 4, 7-chloro-3-{[1-(3-cyclopentylpropanoyl)-4-hydroxypiperidin-4-yl]methyl}-3,4-dihydroquinazolin-4-one], the half-inhibitory concentration (IC50) is greater than 200 µM at UCH-L1, greater than 200 µM on USP8 [1], greater than 200 µM against USP8 [2] and 173 µM on USP7.

For `CC(C)C(=O)N1CCC(O)(Cn2cnc3ccccc3c2=O)CC1` [Example 6, 3-{[4-hydroxy-1-(2-methylpropanoyl)piperidin-4-yl]methyl}-3,4-dihydroquinazolin-4-one], the concentration for half-maximal inhibition (IC50) at UCH-L1, against USP8 [1], at USP8 [2] and against USP7 was greater than 200 µM throughout.

For the compound `O=C(CCC1CCCC1)N1CCC(O)(Cn2cnc3ccccc3c2=O)CC1` [Example 3, 3-{[1-(3-cyclopentylpropanoyl)-4-hydroxypiperidin-4-yl]methyl}-3,4-dihydroquinazolin-4-one], the half-maximal inhibitory concentration (IC50) against UCH-L1 was greater than 200 µM; on USP8 [1], greater than 200 µM; on USP8 [2] it was greater than 200 µM; against USP7, 175 µM.

As to `CC(Cc1cccs1)C(=O)N1CCC(O)(Cn2cnc3cc(Cl)ccc3c2=O)CC1` (stereo not shown) [Example 11, 7-chloro-3-({4-hydroxy-1-[2-methyl-3-(thiophen-2-yl)propanoyl]piperidin-4-yl}methyl)-3,4-dihydroquinazolin-4-one], the IC50 on UCH-L1 is greater than 200 µM; against USP8 [1], greater than 200 µM; on USP8 [2], greater than 200 µM; at USP7 it was 33 µM.
